Source: patent publication US20140038989A1, “TETRAHYDROPYRAZOLO [1,5-A] PYRIMIDINE AS ANTI-TUBERCULOSIS COMPOUNDS” (Glaxo Group Limited, priority 2011, published 2014)
In brackets after ≈: the same amount, converted by molar mass.

tested on: Mycobacterium tuberculosis H37Rv; assay: Mycobacterium tuberculosis H37Rv Inhibition Assay (Whole Cell Assay); assay type: cell-based; details: ATCC 25618 / H37Rv, H37Rv strain (ATCC25618), Middlebrook 7H9, six days at 37° C., resazurin fluorescence after 48 hours

SMILES	MIC
CCc1ccc([C@H]2C[C@@H](C(F)(F)F)n3ncc(C(=O)NCc4cnc(OC)c(F)c4)c3N2)cc1 [Example 104, (5R,7S)-5-(4-ethylphenyl)-N-((5-fluoro-6-methoxypyridin-3-yl)methyl)-7-(trifluoromethyl)-4,5,6,7-tetrahydropyrazolo[1,5-a]pyrimidine-3-carboxamide]	≤ 1 µM
CCc1ccc([C@H]2C[C@@H](C(F)(F)F)n3ncc(C(=O)NCc4ccc(F)c(C)n4)c3N2)cc1 [Example 105, (5R,7S)-5-(4-ethylphenyl)-N-((5-fluoro-6-methylpyridin-2-yl)methyl)-7-(trifluoromethyl)-4,5,6,7-tetrahydropyrazolo[1,5-a]pyrimidine-3-carboxamide]	≤ 1 µM
CCc1ccc([C@H]2C[C@@H](C(F)(F)F)n3ncc(C(=O)NCc4ncc(C)cc4F)c3N2)cc1 [Example 106, (5R,7S)-5-(4-ethylphenyl)-N-((3-fluoro-5-methylpyridin-2-yl)methyl)-7-(trifluoromethyl)-4,5,6,7-tetrahydropyrazolo[1,5-a]pyrimidine-3-carboxamide]	1 to 2 µM (≈ 0.461 to 0.923 µg/mL)
